Patent US9182397B2, “Immunoassay for detecting antibiotics” (DSM IP ASSETS B.V., priority 2011, dated 2015)

Key:
Parameters in all cases: key: 0: no intensity; 1: low intensity; 2: medium intensity; 3: high intensity
[1] = test system: Penicillin binding protein purified from Bacillus stearothermophilus; assay: Detection of Penicillin G in different dairy matrices (Example 24)
Protocol: (§1) A nitrocellulose HF90 membrane (Millipore; length 25 mm) was used as a detection region. The membrane was glued to a polystyrene laminated card (thickness 0.254 mm) 8 mm from the proximal end of the card. Next, the detection zone and control zone were applied onto the nitrocellulose membrane. The detection zone was applied by dispensing 1 mg/ml of a 7ACA-spacer-BSA conjugate in 20 mM KPO4-buffer (pH 7.5) with a Biodot Dispense workstation XYZ 3050 with frontline at 0.2 μl/cm. The control zone was applied by dispensing 0.15 mg/ml of an anti-IgY antibody in 20 mM KPO4-buffer (pH 7.5) comprising 0.675 mg/ml BSA, 5% w/v saccharose and 20 mM NaCl with a Biodot Dispense workstation XYZ 3050 with frontline at 0.8 μl/cm. After drying of the zones, the nitrocellulose membrane was blocked by spraying a solution comprising 10 mM Tris buffer (pH 8) comprising 2% w/v BSA and 0.05% w/v Tween-20 using a Biodot Dispense workstation XYZ 3050 with airjet 3×. The solution was sprayed onto the membrane at a distance of 2 mm below the detection zone. Thereafter, the sample receiving region (VF2 membrane from Millipore; length 1 cm) was glued at the proximal end of the card overlapping 2 mm with the nitrocellulose membrane. The absorbing region (10038 membrane from Millipore; length 20 mm) was glued at the distal end of the card with an overlap of 2 mm on the nitrocellulose membrane. The obtained cards were dried at 37° C. in a dry atmosphere (0% relative humidity). The card was cut in strips of 5.2 mm width and kept at a dry atmosphere (0% relative humidity).
(§2) Streptavidin-coated gold particles were synthesized by reacting colloidal gold (diameter 40 nm; 1 OD/ml) with 10 μg/ml streptavidin. Next, the obtained solution was concentrated by tangential flow filtration, washed and stored in a Tris buffer (pH 8) including NaCN. Penicillin binding protein purified from Bacillus stearothermophilus was biotinylated (1:4) with D-biotinyl-epsilon-aminocaproic acid-N-hydroxysuccinimide ester. Next, the penicillin binding protein-gold conjugate was synthesized by reacting 1.5 μg biotinylated penicillin binding protein with 1 OD streptavidin-coated gold particles for 1 hour, followed by centrifugation at 10,000×g for 5 minutes and resuspension of the obtained pellet in 45 mM bicarbonate buffer comprising 0.1% w/v Triton X-100 (pH 9.6).
(§3) Thereafter, 140-200 mOD of the penicillin binding protein-gold conjugate and 5-20 mOD of the IgY-gold conjugate was solubilized in 100 μl buffer (80 mM Tris buffer comprising 0.01% w/v Triton-X-100, 0.4% w/v BSA, 5% v/v glycerin and 2% w/v saccharose (pH 8.5)) and 0.75 μl of the solution was dispensed per tube and dried for 12 hours at 40° C. The obtained tubes were sealed.
(§4) 150 μl of spiked milk was added per tube containing the dried conjugates. The concentration of penicillin G in the added milk varied from 0 to 4 ng/g (tube 1: 0 ng/g; […]; tube 2: 2 ng/g; tube 3: 3 ng/g; and tube 4: 4 ng/g). The obtained liquid composition was incubated for 2 minutes at 64° C. in an incubator. A test device was put into the tube and incubated for 3 minutes at 64° C. in the incubator. The result was read by eye.
The test was done essentially as described in Example 3. Instead of raw milk, different dairy matrices were tested. All liquid matrices were measured as such and all powders were first dispersed in water. For milk powder 20 g was dispersed in 250 g distilled water and for whey powder 7.1 g was dispersed in 100 g distilled water.

[2] = test system: Penicillin binding protein purified from Bacillus stearothermophilus; assay: Detection of Penicillin G after storage of the test device at 4° C. (Example 25)
Protocol: as §1, §2, §3, §4
The test devices were produced as described above in Examples 1 and 2 and stored at 4° C. At different time periods after production, the test device was used to measure penicillin G. The test was done essentially as described in Example 3.

[3] = test system: Penicillin binding protein purified from Bacillus stearothermophilus; assay: Detection of Penicillin G after different shaking steps (Example 28)
Protocol: as §1, §2, §3, §4
The test was done essentially as described in Example 3, with the proviso that different shaking steps were applied. […]

[4] = test system: Penicillin binding protein purified from Bacillus stearothermophilus; assay: Detection of Penicillin G with milk having a different initial temperature (Example 30)
Protocol: as §1, §2, §3, §4
The test was done essentially as described in Example 3, with the proviso that the test was done with milk having an initial different temperature (0° C., 4° C., 20° C. or 45° C.). The milk was allowed to reach room temperature shortly before the test was done.

## CC1(C)S[C@@H]2[C@H](NC(=O)Cc3ccccc3)C(=O)N2[C@H]1C(=O)O [Penicillin G]
[1]; Pen G 3 ppb, Cocoa
  Intensity of detection zone: 2
[1]; Pen G 3 ppb, Cream 10%
  Intensity of detection zone: 2
[1]; Pen G 3 ppb, Cream 40%
  Intensity of detection zone: 2
[1]; Pen G 3 ppb, Frozen raw buffalo milk (0 ppb gave 1)
  Intensity of detection zone: 1
[1]; Pen G 3 ppb, Frozen raw goat milk (0 ppb gave 1)
  Intensity of detection zone: 1
[1]; Pen G 3 ppb, Frozen raw milk
  Intensity of detection zone: 2
[1]; Pen G 3 ppb, Frozen raw sheep milk (0 ppb gave 1)
  Intensity of detection zone: 1
[1]; Pen G 3 ppb, Low fat UHT milk
  Intensity of detection zone: 2
[1]; Pen G 3 ppb, Low fat processed milk
  Intensity of detection zone: 2
[1]; Pen G 3 ppb, Milk powder (20 g dispersed in 250 g distilled water)
  Intensity of detection zone: 2
[1]; Pen G 3 ppb, Pasteurized milk
  Intensity of detection zone: 2
[1]; Pen G 3 ppb, UHT milk
  Intensity of detection zone: 2
[1]; Pen G 3 ppb, Whey pH 4.5 (0 ppb and control zone gave 0)
  Intensity of detection zone: 0
[1]; Pen G 3 ppb, Whey powder (7.1 g dispersed in 100 g distilled water)
  Intensity of detection zone: 2
[1]; Pen G 4 ppb, Cocoa
  Intensity of detection zone: 1
[1]; Pen G 4 ppb, Cream 10%
  Intensity of detection zone: 1
[1]; Pen G 4 ppb, Cream 40%
  Intensity of detection zone: 2
[1]; Pen G 4 ppb, Frozen raw buffalo milk (0 ppb gave 1)
  Intensity of detection zone: 0
[1]; Pen G 4 ppb, Frozen raw goat milk (0 ppb gave 1)
  Intensity of detection zone: 0
[1]; Pen G 4 ppb, Frozen raw milk
  Intensity of detection zone: 1
[1]; Pen G 4 ppb, Frozen raw sheep milk (0 ppb gave 1)
  Intensity of detection zone: 0
[1]; Pen G 4 ppb, Low fat UHT milk
  Intensity of detection zone: 1
[1]; Pen G 4 ppb, Low fat processed milk
  Intensity of detection zone: 1
[1]; Pen G 4 ppb, Milk powder (20 g dispersed in 250 g distilled water)
  Intensity of detection zone: 1
[1]; Pen G 4 ppb, Pasteurized milk
  Intensity of detection zone: 1
[1]; Pen G 4 ppb, UHT milk
  Intensity of detection zone: 1
[1]; Pen G 4 ppb, Whey pH 4.5 (0 ppb and control zone gave 0)
  Intensity of detection zone: 0
[1]; Pen G 4 ppb, Whey powder (7.1 g dispersed in 100 g distilled water)
  Intensity of detection zone: 1
[2]; Pen G 3 ppb, test device stored 0 weeks at 4° C.
  Intensity of detection zone: 2
[2]; Pen G 3 ppb, test device stored 4 weeks at 4° C.
  Intensity of detection zone: 2
[2]; Pen G 3 ppb, test device stored 7 weeks at 4° C.
  Intensity of detection zone: 2
[2]; Pen G 3 ppb, test device stored 15 weeks at 4° C.
  Intensity of detection zone: 2
[2]; Pen G 3 ppb, test device stored 18 weeks at 4° C.
  Intensity of detection zone: 2
[2]; Pen G 3 ppb, test device stored 26 weeks at 4° C.
  Intensity of detection zone: 2
[2]; Pen G 4 ppb, test device stored 0 weeks at 4° C.
  Intensity of detection zone: 1
[2]; Pen G 4 ppb, test device stored 4 weeks at 4° C.
  Intensity of detection zone: 1
[2]; Pen G 4 ppb, test device stored 7 weeks at 4° C.
  Intensity of detection zone: 1
[2]; Pen G 4 ppb, test device stored 15 weeks at 4° C.
  Intensity of detection zone: 1
[2]; Pen G 4 ppb, test device stored 18 weeks at 4° C.
  Intensity of detection zone: 1
[2]; Pen G 4 ppb, test device stored 26 weeks at 4° C.
  Intensity of detection zone: 1
[3]; Pen G 3 ppb, Method a, no shaking steps (0 ppb gave 2, control zone 1)
  Intensity of detection zone: 1
[3]; Pen G 3 ppb, Method b, one shaking step (10 seconds) after incubation
  Intensity of detection zone: 2
[3]; Pen G 3 ppb, Method c, one shaking step (10 seconds) before incubation
  Intensity of detection zone: 2
[3]; Pen G 3 ppb, Method d, shaking 5 seconds before and 10 seconds after incubation
  Intensity of detection zone: 2
[3]; Pen G 3 ppb, Method e, shaking 10 seconds before and 10 seconds after incubation
  Intensity of detection zone: 2
[3]; Pen G 4 ppb, Method a, no shaking steps (0 ppb gave 2, control zone 1)
  Intensity of detection zone: 1
[3]; Pen G 4 ppb, Method b, one shaking step (10 seconds) after incubation
  Intensity of detection zone: 1
[3]; Pen G 4 ppb, Method c, one shaking step (10 seconds) before incubation
  Intensity of detection zone: 1
[3]; Pen G 4 ppb, Method d, shaking 5 seconds before and 10 seconds after incubation
  Intensity of detection zone: 1
[3]; Pen G 4 ppb, Method e, shaking 10 seconds before and 10 seconds after incubation
  Intensity of detection zone: 1
[4]; Pen G 3 ppb, initial milk temperature 0 ° C.
  Intensity of detection zone: 2
[4]; Pen G 3 ppb, initial milk temperature 4 ° C.
  Intensity of detection zone: 2
[4]; Pen G 3 ppb, initial milk temperature 20 ° C.
  Intensity of detection zone: 2
[4]; Pen G 3 ppb, initial milk temperature 45 ° C.
  Intensity of detection zone: 2
[4]; Pen G 4 ppb, initial milk temperature 0 ° C.
  Intensity of detection zone: 1
[4]; Pen G 4 ppb, initial milk temperature 4 ° C.
  Intensity of detection zone: 1
[4]; Pen G 4 ppb, initial milk temperature 20 ° C.
  Intensity of detection zone: 1
[4]; Pen G 4 ppb, initial milk temperature 45 ° C.
  Intensity of detection zone: 1
